Laboratory results published in ChEMBL document CHEMBL2434931, “Synthesis and antitumor activities of novel thiourea α-aminophosphonates from dehydroabietic acid” (Eur J Med Chem, 2013).
Active and inactive are the calls of the source. The calls are words filed in the database; no cut-off is given here.

What was measured:
[1] = tested on: HepG2; test: Cytotoxicity against human HepG2 cells after 3 days by MTT assay; type: functional, cell-based; settings: HepG2, 72 h
[2] = tested on: SK-OV-3; test: Cytotoxicity against human SKOV3 cells after 3 days by MTT assay; type: functional, cell-based; settings: SK-OV-3, 72 h
[3] = tested on: A549; test: Cytotoxicity against human A549 cells after 3 days by MTT assay; type: functional, cell-based; settings: A549, 72 h
[4] = tested on: NCI-H460; test: Cytotoxicity against human NCI-H460 cells after 3 days by MTT assay; type: functional, cell-based; settings: NCI-H460, 72 h
[5] = tested on: A549; test: Induction of apoptosis in human A549 cells assessed as DNA ladder formation at 10 to 30 uM by agarose gel electrophoresis; type: functional, cell-based
[6] = tested on: A549; test: Induction of apoptosis in human A549 cells assessed as membrane blebbing at 15 uM after 12 to 24 hrs by AO/EB staining-based fluorescence microscopic analysis; type: functional, cell-based
[7] = tested on: A549; test: Induction of apoptosis in human A549 cells assessed as necrotic/late apoptotic cells at 20 uM after 12 hrs by Annexin V-propidium iodide staining-based FACS flow cytometric analysis (reference value: 0.4%); type: functional
[8] = tested on: A549; test: Induction of apoptosis in human A549 cells assessed as early apoptotic cells at 25 uM after 12 hrs by Annexin V-propidium iodide staining-based FACS flow cytometric analysis (reference value: 0.2%); type: functional
[9] = tested on: A549; test: Induction of apoptosis in human A549 cells at 15 uM after 12 to 24 hrs by Hoechst 33258 staining-based fluorescence microscopic analysis; type: functional, cell-based
[10] = tested on: A549; test: Induction of apoptosis in human A549 cells assessed as necrotic/late apoptotic cells at 25 uM after 12 hrs by Annexin V-propidium iodide staining-based FACS flow cytometric analysis (reference value: 0.4%); type: functional
[11] = tested on: A549; test: Induction of apoptosis in human A549 cells assessed as early apoptotic cells at 20 uM after 12 hrs by Annexin V-propidium iodide staining-based FACS flow cytometric analysis (reference value: 0.2%); type: functional
[12] = tested on: A549; test: Cytotoxicity against human A549 cells assessed as necrotic cells at 15 uM after 12 to 24 hrs by AO/EB staining-based fluorescence microscopic analysis; type: cell-based; settings: a549, 15 µM
[13] = tested on: A549; test: Induction of apoptosis in human A549 cells assessed as decrease in mitochondrial membrane potential at 15 uM after 12 to 24 hrs by JC-1 staining-based fluorescence microscopic analysis; type: functional, cell-based
[14] = tested on: A549; test: Induction of apoptosis in human A549 cells after 12 hrs by Annexin V-propidium iodide staining-based FACS flow cytometric analysis; type: functional, cell-based
[15] = tested on: A549; test: Induction of apoptosis in human A549 cells assessed as pycnosis at 15 uM after 12 to 24 hrs by AO/EB staining-based fluorescence microscopic analysis; type: functional, cell-based
[16] = tested on: A549; test: Induction of apoptosis in human A549 cells assessed as cell budding at 15 uM after 12 to 24 hrs by AO/EB staining-based fluorescence microscopic analysis; type: functional
[17] = tested on: A549; test: Induction of apoptosis in human A549 cells assessed as DNA fragmentation at 15 uM after 12 to 24 hrs by TUNEL assay; type: functional, cell-based

SMILES	IC50 [1] [µM]	IC50 [2] [µM]	IC50 [3] [µM]	IC50 [4] [µM]	other results
CCOP(=O)(OCC)C(NC(=S)NC(=O)[C@]1(C)CCC[C@]2(C)c3ccc(C(C)C)cc3/C(=N\O)C[C@@H]12)c1cccc(C)c1 (stereo not given in full)	12.5	28.6	12.9	37.9	
CCOP(=O)(OCC)C(NC(=S)NC(=O)[C@]1(C)CCC[C@]2(C)c3ccc(C(C)C)cc3C(=O)C[C@@H]12)c1ccc(C)cc1 (stereo not given in full)	15.2	11.8	22.2	24.8	
CCOP(=O)(OCC)C(NC(=S)NC(=O)[C@]1(C)CCC[C@]2(C)c3ccc(C(C)C)cc3C(=O)C[C@@H]12)c1ccc(F)cc1 (stereo not given in full)	45.4	30.2	17.4	22.4	
CCOP(=O)(OCC)C(NC(=S)NC(=O)[C@]1(C)CCC[C@]2(C)c3ccc(C(C)C)cc3C(=O)C[C@@H]12)c1cccc(C)c1 (stereo not given in full)	> 50	> 50	37.1	42.7	
CCOP(=O)(OCC)C(NC(=S)NC(=O)[C@]1(C)CCC[C@]2(C)c3ccc(C(C)C)cc3C(=O)C[C@@H]12)c1ccccc1F (stereo not given in full)	49.3	45.1	> 50	36.4	
CCOP(=O)(OCC)C(NC(=S)NC(=O)[C@]1(C)CCC[C@]2(C)c3ccc(C(C)C)cc3C(=O)C[C@@H]12)c1ccccc1OC (stereo not given in full)	> 50	23.6	19.9	29.5	
CCOP(=O)(OCC)C(NC(=S)NC(=O)[C@]1(C)CCC[C@]2(C)c3ccc(C(C)C)cc3C(=O)C[C@@H]12)c1ccc(Br)cc1 (stereo not given in full)	> 50	36.9	49.6	27.9	
CCOP(=O)(OCC)C(NC(=S)NC(=O)[C@]1(C)CCC[C@]2(C)c3ccc(C(C)C)cc3/C(=N\O)C[C@@H]12)c1cccc(Cl)c1 (stereo not given in full)	13.2	12.3	19	28.4	
CCOP(=O)(OCC)C(NC(=S)NC(=O)[C@]1(C)CCC[C@]2(C)c3ccc(C(C)C)cc3/C(=N\O)C[C@@H]12)c1ccccc1F (stereo not given in full)	9.73	19.9	9.16	19.3	
CCOP(=O)(OCC)C(NC(=S)NC(=O)[C@]1(C)CCC[C@]2(C)c3ccc(C(C)C)cc3/C(=N\O)C[C@@H]12)c1cccc2ccccc12 (stereo not given in full)	27.9	40.1	28	37.1	
CCOP(=O)(OCC)C(NC(=S)NC(=O)[C@]1(C)CCC[C@]2(C)c3ccc(C(C)C)cc3C(=O)C[C@@H]12)c1cccc(OC)c1 (stereo not given in full)	15.8	8.41	14.1	11.5	
CCOP(=O)(OCC)C(NC(=S)NC(=O)[C@]1(C)CCC[C@]2(C)c3ccc(C(C)C)cc3C(=O)C[C@@H]12)c1cccc2ccccc12 (stereo not given in full)	> 50	27.3	32.6	> 50	
CCOP(=O)(OCC)C(NC(=S)NC(=O)[C@]1(C)CCC[C@]2(C)c3ccc(C(C)C)cc3/C(=N\O)C[C@@H]12)c1ccc(F)cc1 (stereo not given in full)	13.1	11.4	7	17.7	Activity [5]: Active; Activity [6]: Active; Activity [7]: 5.3%; Activity [8]: 34%; Activity [9]: Active; Activity [10]: 17.7%; Activity [11]: 14.4%; Activity [12]: Non-toxic; Activity [13]: Active; Activity [14]: Dose-dependent effect; Activity [15]: Active; Activity [16]: Active; Activity [17]: Active
CCOP(=O)(OCC)C(NC(=S)NC(=O)[C@]1(C)CCC[C@]2(C)c3ccc(C(C)C)cc3/C(=N\O)C[C@@H]12)c1cccc(Br)c1 (stereo not given in full)	42.8	37.7	34.7	30.2	
CCOP(=O)(OCC)C(NC(=S)NC(=O)[C@]1(C)CCC[C@]2(C)c3ccc(C(C)C)cc3/C(=N\O)C[C@@H]12)c1ccc(C)cc1 (stereo not given in full)	10.9	8.95	17.9	22.4	
CCOP(=O)(OCC)C(NC(=S)NC(=O)[C@]1(C)CCC[C@]2(C)c3ccc(C(C)C)cc3C(=O)C[C@@H]12)c1cccc(F)c1 (stereo not given in full)	37.1	> 50	33	39.8	
CC(C)c1ccc2c(c1)CC[C@H]1[C@](C)(C(=O)O)CCC[C@]21C [DEHYDROABIETIC ACID]	85	84	79.5	84.5	

SMILES	IC50 [1] [µM]	IC50 [2] [µM]	IC50 [3] [µM]	IC50 [4] [µM]	other results
CCOP(=O)(OCC)C(NC(=S)NC(=O)[C@]1(C)CCC[C@]2(C)c3ccc(C(C)C)cc3/C(=N\O)C[C@@H]12)c1cccc(F)c1 (stereo not given in full)	17.5	25.2	28.9	13.3	
CCOP(=O)(OCC)C(NC(=S)NC(=O)[C@]1(C)CCC[C@]2(C)c3ccc(C(C)C)cc3/C(=N\O)C[C@@H]12)c1ccccc1 (stereo not given in full)	27.2	22.1	27	36.7	
CCOP(=O)(OCC)C(NC(=S)NC(=O)[C@]1(C)CCC[C@]2(C)c3ccc(C(C)C)cc3C(=O)C[C@@H]12)c1ccccc1 (stereo not given in full)	46.8	42.5	21.6	21.1	
CCOP(=O)(OCC)C(NC(=S)NC(=O)[C@]1(C)CCC[C@]2(C)c3ccc(C(C)C)cc3C(=O)C[C@@H]12)c1ccc(Cl)cc1 (stereo not given in full)	39.5	31.4	30.3	41.2	
CCOP(=O)(OCC)C(NC(=S)NC(=O)[C@]1(C)CCC[C@]2(C)c3ccc(C(C)C)cc3/C(=N\O)C[C@@H]12)c1ccccc1Cl (stereo not given in full)	> 50	40.2	32.8	29.1	
CCOP(=O)(OCC)C(NC(=S)NC(=O)[C@]1(C)CCC[C@]2(C)c3ccc(C(C)C)cc3C(=O)C[C@@H]12)c1ccc2ccccc2c1 (stereo not given in full)	25.2	24.6	23.2	19.8	
CCOP(=O)(OCC)C(NC(=S)NC(=O)[C@]1(C)CCC[C@]2(C)c3ccc(C(C)C)cc3/C(=N\O)C[C@@H]12)c1ccc2ccccc2c1 (stereo not given in full)	20.9	40.6	> 50	26.8	
CCOP(=O)(OCC)C(NC(=S)NC(=O)[C@]1(C)CCC[C@]2(C)c3ccc(C(C)C)cc3C(=O)C[C@@H]12)c1cccc(Cl)c1 (stereo not given in full)	> 50	> 50	44.1	> 50	
CCOP(=O)(OCC)C(NC(=S)NC(=O)[C@]1(C)CCC[C@]2(C)c3ccc(C(C)C)cc3C(=O)C[C@@H]12)c1ccc(OC)cc1 (stereo not given in full)	> 50	49.9	26.1	24.5	
CCOP(=O)(OCC)C(NC(=S)NC(=O)[C@]1(C)CCC[C@]2(C)c3ccc(C(C)C)cc3/C(=N\O)C[C@@H]12)c1ccc(Cl)cc1 (stereo not given in full)	21.4	16.6	9.66	23.8	
CCOP(=O)(OCC)C(NC(=S)NC(=O)[C@]1(C)CCC[C@]2(C)c3ccc(C(C)C)cc3/C(=N\O)C[C@@H]12)c1ccc(OC)cc1 (stereo not given in full)	17	30.8	23.6	38.5	
CCOP(=O)(OCC)C(NC(=S)NC(=O)[C@]1(C)CCC[C@]2(C)c3ccc(C(C)C)cc3/C(=N\O)C[C@@H]12)c1ccc(Br)cc1 (stereo not given in full)	26.9	12.7	19	22.6	
O=c1[nH]cc(F)c(=O)[nH]1 [FLUOROURACIL]	30	24.4	34.3	44	
CCOP(=O)(OCC)C(NC(=S)NC(=O)[C@]1(C)CCC[C@]2(C)c3ccc(C(C)C)cc3/C(=N\O)C[C@@H]12)c1ccccc1OC (stereo not given in full)	8.62	17.9	27.1	18.6	
CCOP(=O)(OCC)C(NC(=S)NC(=O)[C@]1(C)CCC[C@]2(C)c3ccc(C(C)C)cc3C(=O)C[C@@H]12)c1cccc(Br)c1 (stereo not given in full)	> 50	49.1	42.5	41.5	
CCOP(=O)(OCC)C(NC(=S)NC(=O)[C@]1(C)CCC[C@]2(C)c3ccc(C(C)C)cc3C(=O)C[C@@H]12)c1ccccc1Cl (stereo not given in full)	39.9	27.9	22.5	36.1	
